Assay results from PubChem BioAssay (NCI).
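Where inhibition never reached the appropriate level, the endpoint shown equals the highest concentration tested. Otherwise, values were interpolated linearly from a five-concentration, 48-hour dose response in 96-well plates. GI50: concentration for 50% inhibition of growth. TGI marks complete inhibition of growth.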

Experiments:
Assay in all cases: DTP human tumour cell line panel, 48 h
[1] = test system: HOP-62 NSCLC
[2] = test system: UACC-62 melanoma
[3] = test system: BT-549 breast
[4] = test system: M14 melanoma
[5] = test system: MCF7 breast
[6] = test system: MDA-MB-435
[7] = test system: K-562 leukemia
[8] = test system: A498 renal
[9] = test system: UO-31 renal
[10] = test system: CAKI-1 renal
[11] = test system: OVCAR-8 ovarian
[12] = test system: ACHN renal
[13] = test system: A549 NSCLC
[14] = test system: MOLT-4 leukemia
[15] = test system: U251 CNS
[16] = test system: RXF 393 renal
[17] = test system: T-47D breast
[18] = test system: 786-0 renal
[19] = test system: IGROV1 ovarian
[20] = test system: MALME-3M melanoma
[21] = test system: HT29 colon
[22] = test system: SNB-75 CNS
[23] = test system: NCI-H522 lung
[24] = test system: NCI/ADR-RES ovarian
[25] = test system: UACC-257 melanoma
[26] = test system: NCI-H23 lung
[27] = test system: COLO 205 colon
[28] = test system: SF-295 CNS
[29] = test system: SK-MEL-28 melanoma
[30] = test system: EKVX NSCLC
[31] = test system: MDA-MB-231 breast
[32] = test system: SW-620 colon
[33] = test system: SNB-19 CNS
[34] = test system: OVCAR-3 ovarian
[35] = test system: KM12 colon
[36] = test system: HCT-116 colon
[37] = test system: SK-OV-3 ovarian
[38] = test system: HCC-2998 colon
[39] = test system: PC-3 prostate
[40] = test system: OVCAR-5 ovarian
[41] = test system: HCT-15 colon
[42] = test system: OVCAR-4 ovarian
[43] = test system: SK-MEL-5 melanoma
[44] = test system: SN12C renal
[45] = test system: HS 578T breast
[46] = test system: RPMI-8226 leukemia
[47] = test system: SR leukemia
[48] = test system: LOX IMVI melanoma
[49] = test system: SK-MEL-2 melanoma
[50] = test system: NCI-H460 lung
[51] = test system: HOP-92 NSCLC
[52] = test system: SF-539 CNS

Q: With `COCCn1cc(-c2csc(-c3c[nH]c4ccc(Br)cc34)n2)c2cccnc21` as the molecule, how does the GI50 [1] read?
A: 7.98 µM

Q: And the TGI [1]?
A: 47.7 µM

Q: And the GI50 [2]?
A: 4.2 µM

Q: And the TGI [2]?
A: > 100 µM

Q: And the GI50 [3]?
A: 4.8 µM

Q: What about the TGI [3] of the same molecule?
A: 27 µM

Q: What about the GI50 [4] of the same molecule?
A: 3.27 µM

Q: And the TGI [4]?
A: 60.2 µM

Q: What about the GI50 [5] of the same molecule?
A: 1.79 µM

Q: And the TGI [5]?
A: > 100 µM

Q: And the GI50 [6]?
A: 4.12 µM

Q: And the TGI [6]?
A: > 100 µM

Q: And the GI50 [7]?
A: 3.6 µM

Q: And the TGI [7]?
A: > 100 µM

Q: What about the GI50 [8] of the same molecule?
A: 3.02 µM

Q: And the TGI [8]?
A: 15.9 µM

Q: What about the GI50 [9] of the same molecule?
A: 3.1 µM

Q: What about the TGI [9] of the same molecule?
A: > 100 µM

Q: And the GI50 [10]?
A: 5.21 µM

Q: And the TGI [10]?
A: > 100 µM

Q: And the GI50 [11]?
A: 5.35 µM

Q: What about the TGI [11] of the same molecule?
A: > 100 µM

Q: And the GI50 [12]?
A: 3.04 µM

Q: And the TGI [12]?
A: > 100 µM

Q: What about the GI50 [13] of the same molecule?
A: 6.89 µM

Q: What about the TGI [13] of the same molecule?
A: > 100 µM

Q: What about the GI50 [14] of the same molecule?
A: 3.87 µM

Q: What about the TGI [14] of the same molecule?
A: > 100 µM

Q: What about the GI50 [15] of the same molecule?
A: 6.18 µM

Q: What about the TGI [15] of the same molecule?
A: 73.2 µM

Q: And the GI50 [16]?
A: 3.3 µM

Q: And the TGI [16]?
A: 11.2 µM

Q: And the GI50 [17]?
A: 1.97 µM

Q: What about the TGI [17] of the same molecule?
A: 21 µM

Q: And the GI50 [18]?
A: 4.03 µM

Q: What about the TGI [18] of the same molecule?
A: > 100 µM

Q: And the GI50 [19]?
A: 4.06 µM

Q: And the TGI [19]?
A: > 100 µM

Q: And the GI50 [20]?
A: 3.66 µM

Q: What about the TGI [20] of the same molecule?
A: 57.6 µM

Q: What about the GI50 [21] of the same molecule?
A: 3.36 µM

Q: What about the TGI [21] of the same molecule?
A: > 100 µM

Q: And the GI50 [22]?
A: 4.72 µM

Q: What about the TGI [22] of the same molecule?
A: 29.4 µM

Q: And the GI50 [23]?
A: 2.17 µM

Q: What about the TGI [23] of the same molecule?
A: 6.93 µM

Q: What about the GI50 [24] of the same molecule?
A: 2.86 µM

Q: What about the TGI [24] of the same molecule?
A: > 100 µM

Q: What about the GI50 [25] of the same molecule?
A: 8.69 µM

Q: And the TGI [25]?
A: 64.2 µM

Q: What about the GI50 [26] of the same molecule?
A: 3.21 µM

Q: And the TGI [26]?
A: > 100 µM

Q: And the GI50 [27]?
A: 3.22 µM

Q: What about the TGI [27] of the same molecule?
A: 34 µM

Q: What about the GI50 [28] of the same molecule?
A: 2.83 µM

Q: What about the TGI [28] of the same molecule?
A: > 100 µM

Q: And the GI50 [29]?
A: 4.79 µM

Q: And the TGI [29]?
A: > 100 µM

Q: And the GI50 [30]?
A: 2.05 µM

Q: And the TGI [30]?
A: > 100 µM

Q: And the GI50 [31]?
A: 2.65 µM

Q: And the TGI [31]?
A: > 100 µM

Q: What about the GI50 [32] of the same molecule?
A: 3.3 µM

Q: What about the TGI [32] of the same molecule?
A: > 100 µM

Q: And the GI50 [33]?
A: 12.2 µM

Q: And the TGI [33]?
A: > 100 µM

Q: And the GI50 [34]?
A: 3.9 µM

Q: And the TGI [34]?
A: > 100 µM

Q: And the GI50 [35]?
A: 2.74 µM

Q: And the TGI [35]?
A: > 100 µM

Q: What about the GI50 [36] of the same molecule?
A: 3.84 µM

Q: And the TGI [36]?
A: > 100 µM

Q: And the GI50 [37]?
A: 13.9 µM

Q: What about the TGI [37] of the same molecule?
A: > 100 µM

Q: What about the GI50 [38] of the same molecule?
A: 3.8 µM

Q: And the TGI [38]?
A: > 100 µM

Q: What about the GI50 [39] of the same molecule?
A: 3.68 µM

Q: What about the TGI [39] of the same molecule?
A: > 100 µM

Q: And the GI50 [40]?
A: 4.83 µM

Q: And the TGI [40]?
A: > 100 µM

Q: What about the GI50 [41] of the same molecule?
A: 3.14 µM

Q: And the TGI [41]?
A: > 100 µM

Q: And the GI50 [42]?
A: 2.74 µM

Q: And the TGI [42]?
A: > 100 µM

Q: What about the GI50 [43] of the same molecule?
A: 3.24 µM

Q: What about the TGI [43] of the same molecule?
A: 11.7 µM

Q: What about the GI50 [44] of the same molecule?
A: 7.72 µM

Q: And the TGI [44]?
A: > 100 µM

Q: And the GI50 [45]?
A: 4.44 µM

Q: And the TGI [45]?
A: 43 µM

Q: What about the GI50 [46] of the same molecule?
A: 5.14 µM

Q: What about the TGI [46] of the same molecule?
A: > 100 µM

Q: And the GI50 [47]?
A: 3.25 µM

Q: And the TGI [47]?
A: > 100 µM

Q: And the GI50 [48]?
A: 2.67 µM

Q: What about the TGI [48] of the same molecule?
A: > 100 µM

Q: What about the GI50 [49] of the same molecule?
A: 6.82 µM

Q: And the TGI [49]?
A: 67.6 µM

Q: And the GI50 [50]?
A: 3.07 µM

Q: What about the TGI [50] of the same molecule?
A: > 100 µM

Q: What about the GI50 [51] of the same molecule?
A: 4.39 µM

Q: And the TGI [51]?
A: 30.7 µM

Q: And the GI50 [52]?
A: 7.34 µM

Q: And the TGI [52]?
A: > 100 µM
